Assay results as given in US11083735B2, “Methods for treating sleep disorders, sleep disturbances, and related symptoms using aminosterol compositions” (Enterin, Inc., priority 2017, dated 2021).
Values joined by “and” are separate entries in the source; they are usually repeats but may differ in a detail not shown here. Identical values can stand only once.

How the values were obtained:
[1] = test system: patients with PD and constipation; assay: Phase 2 trial Stage 2: adverse events; conditions: for Common adverse events by dose: Dizziness: lightheadedness included
Method: In Stage 2, 34 patients were evaluated. […] This dose was then maintained (“fixed dose”) for an additional 3-5 days. After the “fixed dose”, these patients were randomly assigned to either continued treatment at that dose or to a matching placebo, for an additional 4-6 days prior to a 2-week wash-out.
A second cohort of 19 patients received squalamine (ENT-01) escalating from 100 mg/day to a maximum of 250 mg/day without subsequent randomization to squalamine (ENT-01) or placebo. Criteria for dose selection and efficacy were identical to those used in the previous cohort.
Adverse events were coded using the current version of MedDRA. Severity of AEs were assessed by investigators according to CTCAE (v4.03): Grade 1 is labeled as Mild, Grade 2 as Moderate, and Grade 3 and above as Severe. […] The number (percentage) of subjects who experienced an AE during escalation and fixed dosing periods were summarized by dose level and overall for each stage. The denominator for calculating the percentages were based on the number of subjects ever exposed to each dose and overall.

[2] = Preclinical oral studies in rats (bioavailability, portal blood, tolerability)
[3] = test system: elderly patient with a sleep disorder; assay: Example 1: person with sleep disturbance, oral squalamine (Kenterin), sleep diary and I-button wrist temperature; format: in vivo, human; conditions: for % Change in Hours: 125 qod
Method: An elderly patient with a sleep disorder was treated with squalamine to determine the efficacy of the drug for treating sleep disturbances. The patient was a person with a 10 year history of sleep disturbance and a history of constipation, anxiety, and anosmia for as long as they could remember. Their sleep was profoundly disturbed: they had difficulty falling asleep, awoke 3-4 times during the night, had vivid dreams and nightmares, spoke and screamed out loud during their sleep (REM-behavior disorder, RBD), often saw “apparitions” or people in the room (e.g., a cook in a top hat, priests and angels dressed in white). They slept with a night light on in an attempt to minimize these occurrences.
The patient was treated with oral squalamine (Kenterin™) starting at 100 mg qd and increasing to 200 mg qd. Sleep was monitored indirectly with the use of a temperature sensor (I-button) mounted on a wristband. The sensor was programed to record skin temperature at the wrist every 15 minutes 24 hrs a day. Data were downloaded every few weeks.
In other words, as the dose is increased, the hours of sleep increase, and as the dose was decreased, the hours of sleep decreased. The effect was immediate. Shown in FIG. 2 is the hours of sleep resulting following the following dosing schedule for squalamine: (1) 100 mg q.d., (2) 150 mg q.d., (3) 200 mg q.d., (4) 125 mg every third day, (5) 100 mg every third day, and (6) 125 mg q.o.d.
In other words, the patient was falling asleep more easily. […] Thus, not only does squalamine decrease delay in sleep onset and increase total sleep time, but it also has an effect on RBD and hallucinations, both of which occur as a result of Circadian rhythm dysfunction.

isolated colons = assay: Isolated perfused colon, migrating muscular contractions (aged mouse; loperamide in young mouse)
From the text: Isolated colons were mounted in an apparatus that permits continuous perfusion through the lumen, and the monitoring of the velocity, frequency and pressure of migrating muscular contractions (MMCs). Similar to the experience in humans, aging in mice is associated with diminished colonic peristaltic activity.
In humans, opiates markedly diminish GI motility and suppress fluid secretion causing constipation. […] When loperamide is introduced into the lumen of a young mouse colonic peristalsis is inhibited. When squalamine is added in presence of continued loperamide perfusion, the dysmotility is overridden.

vagal afferent fibers = assay: Multiunit firing of a jejunal branch of the vagus (mesenteric nerve); parameters: species or system mouse; conditions: luminal squalamine
Method: Squalamine was applied into the lumen by gravity feed 11 min after beginning the recording. […] The Control represents background discharge before applying squalamine, and the Peak gives the average firing frequency during a 3 min period at the peak of the response.
To determine whether the electrical activity stimulated by the luminal application of squalamine was principally contained within the ENS of the intestine, or whether it communicated information rostrally to the CNS, a further experiment was designed in which multiunit fiber firing rates were measured from a single jejunal branch of the vagus. Squalamine was introduced 11 minutes after recordings were begun. Vagal afferent firing frequency increased almost immediately thereafter to 3 fold the initial rate within a few minutes.

[4] = test system: mice with constipation due to overexpression of human αS; assay: Oral squalamine in mice with constipation due to overexpression of human αS; format: in vivo, mouse; conditions: orally administered (West et al, manuscript in preparation)
[5] = 100 mg q3d, days 81-83, daily values and mean
[6] = 100 mg q3d, days 81-83, daily values and mean, mean
[7] = 150 mg q3d, days 105-111, daily values and mean
[8] = 150 mg q3d, days 105-111, daily values and mean, mean
[9] = 150 mg qod, days 100-104, daily values and mean
[10] = 150 mg qod, days 100-104, daily values and mean, mean
[11] = days 53-55: 175/200 mg, daily values and Mean 200
[12] = days 53-55: 175/200 mg, daily values and Mean 200, mean

## CC(C)[C@@H](CC[C@@H](C)[C@H]1CC[C@H]2[C@@H]3[C@H](O)C[C@H]4C[C@@H](NCCCNCCCCN)CC[C@]4(C)[C@H]3CC[C@]12C)OS(=O)(=O)O (single isomer, unassigned; ent-01) [ENT-01]
[1]; Stage 2
  AEs confined to the GI tract: 63%
[1]; Stage 2, 15/34
  Diarrhea, patients: 44%
[1]; Stage 2, 18/34
  nausea, patients: 52.9%
[1]; Stage 2, 34 dosed
  Abdominal pain, Mild: 4(11.7) n, %
  Abdominal pain, Moderate: 2(5.8) n, %
  Blood in urine, Mild: 0 n, %
  Blood in urine, Moderate: 0 n, %
  Diarrhea, Mild: 12(35) n, %
  Diarrhea, Moderate: 2(5.8) n, %
  Diarrhea, Severe: 1(2.9) n, %
  Difficulty falling asleep, Mild: 1(3) n, %
  Difficulty falling asleep, Moderate: 0 n, %
  Dizziness, Mild: 7(20.5) n, %
  Dizziness, Moderate: 1(2.9) n, %
  Flatulence, Mild: 1(3) n, %
  Flatulence, Moderate: 0 n, %
  Headache, Mild: 3(8.8) n, %
  Headache, Moderate: 0 n, %
  Increased urinary frequency, Mild: 2(5.8) n, %
  Increased urinary frequency, Moderate: 0 n, %
  Loss of appetite, Mild: 0 n, %
  Loss of appetite, Moderate: 0 n, %
  Nausea, Mild: 18(52) n, %
  Nausea, Moderate: 1(2.9) n, %
  Skin lesions-rash, Mild: 3(8.8) n, %
  Skin lesions-rash, Moderate: 0 n, %
  Urinary retention, Mild: 1(3) n, %
  Urinary retention, Moderate: 0 n, %
  Vomiting, Mild: 2(5.8) n, %
  Vomiting, Moderate: 0 n, %
  Worsening acid reflux, Mild: 4(11.7) n, %
  Worsening acid reflux, Moderate: 0 n, %
  Worsening hemorrhoid, Mild: 1(3) n, %
  Worsening hemorrhoid, Moderate: 0 n, %
[1]; Stage 2, dose 75 mg
  Common adverse events by dose: Diarrhea: 7
  Common adverse events by dose: Nausea: 3
  Common adverse events by dose: Dizziness: 8
[1]; Stage 2, dose 100 mg
  Common adverse events by dose: Diarrhea: 10
  Common adverse events by dose: Nausea: 12
  Common adverse events by dose: Dizziness: 7
[1]; Stage 2, dose 125 mg
  Common adverse events by dose: Diarrhea: 3
  Common adverse events by dose: Nausea: 4
  Common adverse events by dose: Dizziness: 8
[1]; Stage 2, dose 150 mg
  Common adverse events by dose: Diarrhea: 2
  Common adverse events by dose: Nausea: 11
  Common adverse events by dose: Dizziness: 2
[1]; Stage 2, dose 175 mg
  Common adverse events by dose: Diarrhea: 1
  Common adverse events by dose: Nausea: 12
  Common adverse events by dose: Dizziness: 0
[1]; Stage 2, dose 200 mg
  Common adverse events by dose: Diarrhea: 2
  Common adverse events by dose: Nausea: 6
[1]; Stage 2, dose 225 mg
  Common adverse events by dose: Diarrhea: 3
  Common adverse events by dose: Nausea: 1
[1]; Stage 2, dose 250 mg
  Common adverse events by dose: Diarrhea: 2
[1]; Stage 2, Unrelated to ENT-01 (diverticulosis, polyp, aspirin, Plavix, naproxen)
  Lower GI bleed, Severe: 1(2.5) n, %
[2]; portal blood concentrations following oral dosing of radioactive ENT-01 to rats
  absorption from the intestine: low
[2]; rats
  tolerability: well tolerated
[2]; rats, preclinical studies
  oral bioavailability: about 0.1%

## CC(C)[C@@H](CC[C@@H](C)[C@H]1CC[C@H]2[C@@H]3[C@H](O)C[C@H]4C[C@@H](NCCCNCCCCN)CC[C@]4(C)[C@H]3CC[C@]12C)OS(=O)(=O)O [squalamine]
[3]; [5]
  Delay: 30 min
  Fragments awake: 40 min and 30 min
  Total hrs sleep: 6.75 h and 7 h
[3]; [6]
  Fragments awake: 36 min
  Total hrs sleep: 6.8 h
[3]; 125 mg q3d, days 69-80, daily values and mean
  Delay: 20 min and 30 min
[3]; 125 mg q3d, days 69-80, daily values and mean, mean
  Delay: 25 min
[3]; [7]
  Delay: 10 min and 15 min and 20 min
  Total hrs sleep: 10 h and 9.50 h and 8.75 h and 9.75 h and 8 h
[3]; [8]
  Delay: 14 min
  Total hrs sleep: 9.3 h
[3]; [9]
  Delay: 15 min and 20 min
  Total hrs sleep: 9 h and 8.5 h and 7.75 h and 10 h and 9.5 h
[3]; [10]
  Delay: 17 min
  Total hrs sleep: 8.95 h
[3]; 100 qd
  % Change in Hours (from base): +5.3%
[3]; 100 qd (mg), pre (0) 7.5
  Total hrs sleep: 7.9 h
[3]; 125 qod (mg)
  Total hrs sleep: 8.7 h
[3]; from initial pre(0)
  % Change in Hours: +16% from initial pre(0);
[3]; from post (0)
  % Change in Hours: +24.3% from post (0)
[3]; 150 qd
  % Change in Hours (from base): +17.3%
[3]; 150 qd (mg)
  Total hrs sleep: 8.8 h
[3]; 200 qd (mg), baseline 7.5
  Total hrs sleep: 9.1 h
[3]; Post (0)
  % Change in Hours (from base): −6.7%
[3]; Post (0), after discontinuation of squalamine
  Total hrs sleep: 7.0 h
[3]; after STOP, days 62-68, daily values and mean
  Fragments awake: 30 min and 20 min
[3]; after an appropriate dose of squalamine
  diurnal rhythm (I-button recording, FIG. 7): restored almost immediately
[3]; after intermittent treatment for several months
  diurnal rhythmicity (I-button, periodogram): some diurnal rhythmicity was restored
[3]; after the first week of treatment
  circadian rhythm (I-button, periodogram): still absent
[3]; days 53-55: 175 mg (day 53), 200 mg (days 54-55), daily values and Mean 200
  Delay: 20 min
[3]; [11]
  Fragments awake: 15 min and 30 min
  Total hrs sleep: 9.0 h and 9.25 h
[3]; [12]
  Fragments awake: 20 min
  Total hrs sleep: 9.1 h
[3]; off K, days 112-135, daily values and mean
  Total hrs sleep: 4.5 h
[3]; on treatment, reappeared when medication was discontinued
  RBD (vivid dreams and nightmares) and frank visual hallucinations: disappeared on treatment
Isolated colons; squalamine into the colonic lumen of the aged mouse
  colonic peristalsis: dramatic stimulation of peristalsis
Isolated colons; young mouse colon, squalamine added in presence of continued loperamide perfusion
  dysmotility caused by loperamide: overridden
Vagal afferent fibers
  persistence of increased firing rate: at least 20 minutes
Vagal afferent fibers; within a few minutes
  vagal afferent firing frequency relative to the initial rate: 3 fold
[4]
  gastro-intestinal motility: stimulates gastro-intestinal motility
